Data as given in patent US6635437B2, “Compounds, compositions and methods for generating chemiluminescence with phosphatase enzymes” (Lumigen, Inc., priority 1996, dated 2003).

Tests used:
[1] = tested on: alkaline phosphatase (AP); assay: Chemiluminescent detection of alkaline phosphatase with acridan phosphate and cationic aromatic compound (CAC); assay type: biochemical
[2] = tested on: alkaline phosphatase (AP); assay: Chemiluminescent detection of alkaline phosphatase with acridan phosphate and surfactant enhancer; assay type: biochemical; conditions: 0.66 mM 5, 0.2 M 2-methyl-2-amino-1-propanol pH 9.6, 0.5 mg/mL Enhancer A; 10^−13 mol AP, 25° C.
[3] = tested on: AP-labeled antibody; assay: Western blot assay with compound 5 and lucigenin; conditions: 0.66 mM 5, 64 μM lucigenin, 0.1 M tris pH 8.8; PVDF membrane
Description: A composition of the present invention were used to detect and quantify a protein, human transferrin in a Western blot with an AP-labeled antibody on a polyvinylidene difluoride (PVDF) membrane. Dilutions of transferrin containing from 5000, 1000, 180, 30 and 5 pg, respectively, of protein were electrophoresed and transferred to PVDF membranes (Millipore, Bedford, Mass.). The transferrin bands were blocked with and then reacted sequentially with goat anti-human transferrin and rabbit anti-goat-AP conjugate. The membranes were soaked briefly with reagents comprising 0.1 M tris buffer, pH 8.8 containing 0.88 mM MgCl2, 0.66 mM compound 5 and 64 μM lucigenin. The membranes were placed between transparent plastic sheets and exposed to X-ray film. The bands for human transferrin were detected after 10 min with a 2.5 min exposure. The light produced using this composition led to intense emission which could be imaged for several hours.
Similar results were obtained using nitrocellulose blotting membrane instead of PVDF membrane.

Question: Which results are given for `CN1c2ccccc2C(=C(OP(=O)([O-])[O-])Sc2ccccc2)c2ccccc21.[Na+].[Na+]` [Compound 5, 9-(Phenylthiophosphoryloxymethylidene)-10-methylacridan, disodium salt]?
Answer: time to maximum chemiluminescence intensity ([1]; 0.66 mM 5, 6.4 μM lucigenin, 1 mg/mL SDS, 0.01 mg/mL Na2SO3, 0.033% TWEEN 20, tris pH 8.8, 8×10^−16 mol AP, 25° C.): 2 min; S at 36 min (plateau intensity) ([1]; 21 mM CAC in DMSO diluted 1:1000 into compound 5 in 0.1 M tris pH 8.8, 4×10^−16 mol AP, room temperature): 34.7; chemiluminescence on reaction with AP [2]: easily measurable blue chemiluminescence; time to maximum chemiluminescence intensity [2]: 2 min; period for which emission could be imaged [3]: several hours
